The subject of series [1] is Low density lipoprotein of human (human LDL). The experiment in a line: Inhibitory effect against lipid peroxidation induced by copper (LDL oxidation, MDA). In kind it is biochemical. As to conditions: CuSO4 10 μM, 37° C. 18 hours. On the procedure: Low density lipoprotein of human (human LDL, sigma) was dissolved in water to be final concentration of 1 mg/ml. To remove EDTA (ethylenediamine tetraacetate), the aqueous solution was dialyzed in phosphate buffer at 4° C. for 18 hours. At this dialysis, phosphate buffer was changed three times. Phosphate buffer was added to LDL (100 μg LDL protein/ml) which EDTA was removed from the aqueous solution, additionally thereto CuSO4 10 μM as oxidant was added. […] Group to which CUSO4 was not added was used as blank group. Group to which CUSO4 and vehicle were added in place of test compounds was used as control group. The mixture was incubated at 37° C. for 18 hours. EDTA […] was added to the mixture to terminate the oxidation reaction.
As shown in example 4, Cu^2+ facilitates the oxidation reaction to produce malondialdehyde (MDA), lipid peroxidation product. The MDA quantification is achieved by reacting samples with 2-thiobarbituric acid (TBA) and measuring the absorbance at 530 nm. Also, 1,1,3,3-tetramethoxypropane purchased from sigma was used as standard materials. Inhibitory effect against lipid peroxidation of the test compounds was measured by MDA (nmol) to protein (mg). Decrease of MDA to that of control group was calculated.

A further series relates to retina ganglion cell. As to the kind of experiment: Protective effect on neuronal cells damage by axotomy of optic nerve. In kind it is in vivo, rat. Conditions: 20 μM, injected vitreously, after axotomy of optic nerve. As for the experimental part: Test compounds were dissolved in DMSO to prepare stock solution (100 mM), which was diluted with physiological saline to the 20 μM. 10 μl of […] was injected vitreously.
Adult rats were anesthetized with chloral hydrate (400 mg/Kg), then optic nerve was exposed by bulbar conjunctiva. Thereafter, nerve corresponding to 0.5 mm or 3 mm from eye ball was excided, respectively. Or through upper eyelid cutaneous amputation was accomplished, then part of lacrimal gland was removed. […] The optic nerve was excised about 5 mm back from eye ball. Blood vessels of retina supplying blood to retina was not impaired. Condition of blood vessels of retina was checked with funduscope. Fluorogold (Fluorochrome Inc. 5% in PBS (phosphate buffered solution) was administrated to Half of test group, in the retrograde after axotomy of optic nerve. To investigate cell survival of the ganglion after axotomy, eyes was removed from rats, then retina was isolated in 3 days, 1 week, 2 weeks, 4 weeks, 2 months, 4 months, and 6 months. The isolated retina was investigated by transmission electron microscope. For quantitative analysis, at the same time tissue of retina was prepared. The prepared tissue was investigated by immunochemical dyeing or fluorescent microscope to which 530˜560 nm filter was installed.

The next series has as its system Sprague-Dawley Rat. As to conditions: 30 mg/kg; for Infarction volume Medium(%): four times to abdominal cavity, 24 hours after operation. On the procedure:
Male rat (Sprague-Dawley Rat, 350±50 g, Samyook) was anesthetized by administration of Pentobarbital sodium 40 mg/Kg. PE-19 tubing was inserted to the femoral vein and the artery, left carotid artery was exposed. Before the operation, heparin sulfate 20 μg was injected to the peritoneal cavity. Blood pressure measuring device was inserted to the femoral artery for the continuous measurement of arterial pressure. Blood (10 ml) was collected from the femoral vein to decrease blood pressure to 30 mmHg. If blood pressure is not decreased to 100 mmHg by collection of blood (7 ml), it is evaluated that sympathetic tone is very high.
With blood pressure maintaining to be 30 mmHg, left carotid artery was closed by aneurysm clamp for 20 min to induce ischemia. Reperfusion was accomplished by the collected blood and 0.84% bicarbonate saline (5 ml). Body temperature of rats was constantly maintained to be 37±0.5° C., by using thermal blanket and incandescent light bulbs during the ischemia. After the operation, in recovering period, body temperature was constantly maintained for more than 2 hours. If rats were recovered entirely, they were transferred to animal laboratory. Condition of animal laboratory, such as temperature, humidity and light cycle was constantly maintained to be 27° C., 60% and […], respectively.
After 24 hours from the operation, rats were sacrificed. Then brain was enucleated from rat within 3 min. Enucleated brain was excised on the ice at the interval 2 mm by using brain matrix to produce six coronal sections. The said coronal sections were dyed in 2% 2,3,5-triphenyltetrazolium chloride solution at 37° C. for 30 min. The said dyed coronal section was developed and printed. Thereafter, the ratio of necrosis area to brain area was measured by using Image Analyzer.
Otherwise, test compounds were four times administrated to abdominal cavity at a dose 30 mg/kg. […]
The protective effect on brain damage induced by brain ischemia-reperfusion was evaluated by calculating reduction of necrosis area to that of brain for a control group.

The nature of series [2]: Acute oral toxicity test in rats. As to conditions: SD, rat, in vivo, single oral dose, suspended in 0.5% methyl cellulose, read-out: lethal dose (LD50) for oral administration. In outline: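 Six-week-old SPF SD rats, two per group, received compounds orally as suspensions in 0.5% methyl cellulose. Endpoints were clinical signs, body weight, mortality, haematology, serum biochemistry and macroscopic necropsy of organs and tissues.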

The test system of another series is cortical neuron cells. The experiment in a line: Protective effect on iron-induced neuronal cell injury (LDH release). The format is cell-based. Conditions: FeSO4 50 μM; for IC50: LDH. The method in brief: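 Embryonic (day 17–18) cortical neurons cultured 7–9 days, serum lowered to 0.2%, pretreated 30 min with compound (DMSO ≤0.1%), then exposed to 50 μM FeSO4 for 24 h. LDH released to medium measured; protection expressed as LDH reduction versus vehicle control.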
(In general: Release of lactate dehydrogenase indicates damage to the cell membrane.)

Where [3] appears, read: listed as compound of formula 11.

The record followed here is patent US7414068B2, “Benzopyran derivatives substituted with secondary amines including tetrazole, method for the preparation thereof and pharmaceutical compositions containing them” (Dongbu Hannong Chemical Co., Ltd., priority 2002, dated 2008).

Structures are written as SMILES. Read-outs that look alike come from different tables or passages of the source.

The term IC50 denotes the concentration that gives 50% inhibition.

For `COC(OC)[C@@]1(C)Oc2ccc(N)cc2[C@H](N(Cc2nnn(C)n2)c2ccc(Cl)cc2)[C@H]1O` [Example 11, (2S,3R,4S)-6-amino-4-[N-(4-chlorophenyl)-N-(2-methyl-2H-tetrazol-5-ylmethyl)amino]-3-hydroxy-2-methyl-2-dimethoxymethyl-3,4-dihydro-2H-1-benzopyran], the “Inhibitory effect(%) against lipid peroxidation induced by copper” value in series [1] (Addition 10^−5 M) is recorded as 63.9%; in series [1] (Addition 10^−6 M), 54.9%; in series [1] (Addition 10^−7 M), 27.3%. In addition, the “Survival of the ganglion cell(%)” value with retina ganglion cell and in the series with retina ganglion cell (setting [3]) was 43% throughout. Further, the “Infarction volume Medium(%)” value with Sprague-Dawley Rat is listed as 21.5 ± 2.6%; with Sprague-Dawley Rat (setting [3]), 21.5%. The “Infarction volume Decrease(%)” value in the series with Sprague-Dawley Rat (relative to control group) came out at 46.3%. In addition, the LD50 in series [2] was greater than 2000 mg/kg. Besides, the “protective effect on neuron cell: Inhibition (%, 30 μM compound addition)” value with cortical neuron cells (30 μM compound, 24 hours, LDH reduction vs control) is reported as 93%. Besides, the IC50 in the series with cortical neuron cells (Cortical neurone, 24 h) was less than 2 µM; with cortical neuron cells (24 hours), 2 µM.
